Test [1] has as its system 71-mer aptamer (DNA, aptamer) GGAATTCGCTAGCACGTTGACGCTGGTGCCCGGTTGTGGTGCGAGTGTTGTGTGGATCCGAGCTCCACGTG
Nature of the test: CD titration. To be noted: 100 mM Na+, 5 mM K+, 2 mM Mg2+, 1 mM Ca2+; 20 mM Tris pH 7.6, 25 °C; 5 µM aptamer, 2.5-40 µM OTC.

The subject of test [2] is 40-mer aptamer (DNA, aptamer) ACGTTGACGCTGGTGCCCGGTTGTGGTGCGAGTGTTGTGT
As to the kind of experiment: CD titration. To be noted: 100 mM Na+, 5 mM K+, 2 mM Mg2+, 1 mM Ca2+; 20 mM Tris pH 7.6, 25 °C; 5 µM aptamer, 2.5-40 µM OTC.

For test [3], the system named is thiol-modified 40-mer aptamer (DNA, aptamer) ACGTTGACGCTGGTGCCCGGTTGTGGTGCGAGTGTTGTGT
As to the kind of experiment: QCM with dissipation (frequency decrease). To be noted: 100 mM Na+, 5 mM K+, 2 mM Mg2+, 1 mM Ca2+; pH 7.1 and 9.1, 25 °C; 20 and 40 µM OTC.

In test [4] the test system is 40-mer aptamer (DNA, aptamer) ACGTTGACGCTGGTGCCCGGTTGTGGTGCGAGTGTTGTGT
Nature of the test: CD thermal denaturation (250 nm free, 270 nm bound). The settings on record: 100 mM Na+, 5 mM K+, 2 mM Mg2+, 1 mM Ca2+; 20 mM Tris pH 7.1; 40 µM OTC, 5 µM aptamer; derived from two Tm (41 to 80 °C).

SMILES strings stand for the structures.

With `CN(C)[C@@H]1C(=O)C(C(N)=O)=C(O)[C@@]2(O)C(=O)C3=C(O)c4c(O)cccc4[C@@](C)(O)[C@H]3[C@H](O)[C@@H]12`, the binding result in test [1], in test [2] and in test [3] was “yes” each time. Moreover, in test [4], the “Tm shift (ΔTm)” value is 39 °C.

The values above are taken from PMC10526194 (2023).
